The record followed here is article PMC9481563, “Structural insights into the pSer/pThr dependent regulation of the SHP2 tyrosine phosphatase in insulin and CD28 signaling” (Nature Communications, 2022).

Each structure is given as a SMILES string.

The assay concerns the target T1, PTP1B catalytic domain, C215S (Homo sapiens, UniProt P18031, C215S).
T1 sequence (P18031 1-229 C215S): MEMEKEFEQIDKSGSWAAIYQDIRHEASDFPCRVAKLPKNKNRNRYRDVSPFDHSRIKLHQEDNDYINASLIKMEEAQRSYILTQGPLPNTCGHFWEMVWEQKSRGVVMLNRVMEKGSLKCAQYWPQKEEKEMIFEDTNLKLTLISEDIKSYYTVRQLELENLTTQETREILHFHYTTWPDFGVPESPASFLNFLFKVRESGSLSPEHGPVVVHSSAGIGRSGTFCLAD
Nature of the assay: biochemical. The format is binding. As to conditions: competitive FP titration vs CF-ppIRS1 100 nM, protein fixed, unlabelled peptide varied; n = 3 technical replicates. The source says: The two SH2 domains of PI3KR1 (UniProt P27986; nSH2: 321−433 cSH2: 614–724) were cloned from HEK293T cDNA pool, and subsequently ligated into a modified pET vector encoding maltose binding protein (MBP) tag on the N-terminal and a hexa-His tag on the C-terminal end of the construct. Similarly, the catalytic, tyrosine phosphatase domains of PTPRε (P23469 first domain: 107–399) and PTP1B (P18031; 1–229) were cloned from a HEK293T cDNA pool, and inserted into a pBH4 vector encoding an N-terminal His6 tag (for the final binding experiments, an MBP-tagged version of PTPRε was employed). […] Wild-type C-terminal FLAG-tagged human IRS1 was cloned between HindIII-NotI sites of pcDNA3.1(+) vector (#V79020 Invitrogen, Waltham MA USA). Ser/Ala mutant IRS1 was generated by replacing the region of S616/S636/S666/S736 positions with a cassette carrying S616A/S636A/S666A/S736A mutations. All constructs were validated by complete Sanger sequencing before protein expression and purification. The oligonucleotide sequences used are shown on Supplementary table 4.
Fluorescence polarization was always measured in triplicates, on black Corning low volume round bottom 384-well plates (with 10 ul volumes), using a BioTek Cytatation 5 reader, with the green fluorescent protein (GFP) cube filter set (ex: 485/20, em: 528/20, gain: 50, height: 7.5). Fluorescence polarization data was evaluated on Origin 2018. The dissociation constants (Kd) were determined by using the appropriate quadratic and cubic equations inserted as a user-defined function and applying nonlinear fit until convergence. The fitting formulae are shown at Supplementary note 1. Kd ratio distributions for Fig. 6 were calculated using a Monte-Carlo approach (Supplementary note 2).
Supplementary note 1. Curve fitting of fluorescence polarization (FP) measurements.
To evaluate polarization values from direct and competitive titrations, we used the following fitting formulae in Origin 2018, as detailed below.
Direct titration curves were fitted according to the following formula: […]
Where Imin is the minimal anisotropy, Imax is the (asymptotically estimated) maximal intensity. K0 is the starting concentration of the protein, while T0 is the (fixed) concentration of the labelled peptide and Kd is the dissociation constant.
Competitive titration curves were fitted with a different formula (In addition to those defined above, constants KdT KdB B0 T0 and D0 here refer to the Kd derived from the direct titration, the unknown Kd of the analyte, the labelled peptide concentration, the competitor peptide concentration as well as the protein concentration, respectively).
The ± sign refers to two different scenarios, depending on the sign of discriminant (KdT > KdB or […]). For unknown analytes, the choice of sign is not arbitrary, as the fitting will not converge unless the appropriate formula is chosen: […]
Where A, B and C correspond to the following expressions: […]

`CSCC[C@H](NC(=O)[C@@H]1CCCN1C(=O)[C@H](CCSC)NC(=O)[C@H](Cc1ccc(OP(=O)(O)O)cc1)NC(=O)[C@H](CC(=O)O)NC(=O)CNC(=O)[C@H](CO)NC(=O)CNC(=O)[C@H](CCCCN)NC(=O)[C@H](CCCNC(=N)N)NC(=O)CN)C(=O)N[C@@H](COP(=O)(O)O)C(=O)N1CCC[C@H]1C(=O)N[C@@H](CCCCN)C(=O)N[C@@H](CO)C(=O)O` [ppIRS1] yielded a Kd of 61.3 ± 10.2 nM.

For the molecule `CSCC[C@H](NC(=O)[C@@H]1CCCN1C(=O)[C@H](CCSC)NC(=O)[C@H](Cc1ccc(OP(=O)(O)O)cc1)NC(=O)[C@H](CC(=O)O)NC(=O)CNC(=O)[C@H](CO)NC(=O)CNC(=O)[C@H](CCCCN)NC(=O)[C@H](CCCNC(=N)N)NC(=O)CN)C(=O)N[C@@H](CO)C(=O)N1CCC[C@H]1C(=O)N[C@@H](CCCCN)C(=O)N[C@@H](CO)C(=O)O` [p0IRS1], the Kd turned out to be 1140 ± 85.1 nM.
